SMILES strings stand for the structures. A value given as a limit tells only on which side of the number the result lay.

In this assay the test system is eNOS promoter. Kind of assay: Activation of eNOS transcription (eNOS promoter-luciferase reporter gene assay). The assay is classed as cell-based. The settings on record: human endothelial cell line stably transfected with eNOS promoter-luciferase construct; 18 h incubation; determined graphically; read-out: EC50 values of transcription induction ratios (TIR). The protocol: Activation of eNOS transcription was measured as described in detail by Li et al., “Activation of protein kinase C alpha and/or epsilon enhances transcription of the human endothelial nitric oxide synthase gene”, Mol. Pharmacol. 53 (1998) 630. Briefly, a 3.5 kB long fragment 5′ of the starting codon of the eNOS gene was cloned, sequenced and cloned in firefly luciferase expression plasmids to monitor activation of the eNOS promoter by reporter gene activity. A human endothelial cell line stable transfected and expressing this promoter-reporter construct was used for compound testing. Cells were incubated for 18 h with the compounds.
All compounds were dissolved in sterile dimethyl sulfoxide (DMSO). A final concentration of 0.5% DMSO in complete medium was allowed. Induction of reporter gene expression in these cells was measured using a standard luciferase assay system (Promega, Cat. No. E150) according to the manufacturer's instructions. Luciferase induction in cells incubated with compounds were compared to those incubated with solvent alone. The ratio of both activities (transcription induction ratio, TIR) was plotted as a function of compound concentration. […] EC50 values of transcription induction ratios as a function of compound concentration were determined graphically.

In the case of `Nc1ccc2nc(-c3ccc(F)cc3)cn2n1` [Example 7, 2-(4-Fluoro-phenyl)-imidazo[1,2-b]pyridazin-6-ylamine], the EC50 is under 500 nM. With `Fc1ccc(-c2cn3nc(Cl)ccc3n2)cc1` [Example 8, 6-Chloro-2-(4-fluoro-phenyl)-imidazo[1,2-b]pyridazine] the figure was under 500 nM.

(Values after patent publication US8044050B2, “Imidazo[1,2-a]azines and their use as pharmaceuticals” (Sanofi-Aventis, priority 2007, dated 2011).)
